Measurements published in patent US6642004B2, “Method for measuring nucleotides” (FMC Corporation, priority 2000, dated 2003).
Read-outs that look alike come from different tables or passages of the source.

How the values were obtained:
Sf9 cells = assay: quantification of cAMP generated in Sf9 cells after compound treatment ([3H]cAMP competition for bovine adrenal binding protein, single vessel); type: cell-based
Protocol: On the day of the experiment, four-day sold Sf9 cells for use in the first step, with cell density at about 5,000,000 to about 6,000,000 cells, were spun in a Biofuge 15 centrifuge (available from Heneaus Instruments, Germany at 1310 rpm (500 g) for five minutes. After this time, the supernatant was discarded and sufficient Sf9 serum free medium (Sf900 II SFM) was added to the resulting cell pellet give a final concentration of 2,000,000 cells /ml. To these cells was added 0.02 ml of Solution J. Upon completion of addition, the resulting solution was gently mixed and then incubated at ambient temperature for 40 minutes, for use, below .
This method was performed in the manner disclosed in Example 1 except that synephrine was used rather than amitraz, and the concentrations of the synephrine dilutions were in the range of 0.00369 mM to 1.0 mM rather than 0.00123 mM to 0.3 mM.
This method was performed in the manner disclosed in Example 1 except that DL-octopamine was used rather than amitraz, and the concentrations of the DL-octopamine dilutions were in the range of about 0.0123 mM to about 3.0 mM rather than about 0.00123 mM to about 0.3 mM.
This method was performed in the manner disclosed in Example 1 except that DCDM was used rather than amitraz, and the concentrations of the DCDM dilutions were in the range of 0.000123 mM to about 0.03 mM rather than 0.00123 mM to about 0.3 mM.

[1] = test system: protein derived from a bovine adrenal gland
Protocol: Thereafter, 50 μl of the above-prepared Sf9 cell solution was added to all of the wells. The microplates were incubated at ambient temperature for 45 minutes. After this time, the Sf9 cells were lysed by adding 50 μl of Solution H. The microplates were incubated a second time at ambient temperature for 15 to 20 minutes. After this time, 25 μl of Solution R followed by 25 μl of Solution Q were added to the microplates. The microplates were incubated for a third time at ambient temperature with shaking at 125 rpm for 90 minutes. The resulting mixtures were filtered under reduced pressure through glass fiber filtermats, which were soaked in 500 ml of Solution G for about 30 minutes prior to use. The filtermats were washed for ten seconds with ice-cold Solution F and then, dried at 60° C. for 45 to 60 minutes in a Stabil-Therm® oven (available from Blue M Electric Co., Blue Island, Ill.). After this time, the amount of the radiolabeled 3′,5′-monophosphate/binding protein complex bound to the filtermats was determined by the aforesaid quantification method.

[2] = 0.000111 mM in the synephrine series

NCC(O)c1ccc(O)cc1 (racemic) [DL-octopamine]
Specific Counts (dpm) (Sf9 cells; 0.00041 mM): 5942.2 dpm | Total Counts (dpm) Determined (Sf9 cells; 0.00041 mM): 6899 dpm | inhibition at 0.41 µM (Sf9 cells; 0.00041 mM): 6.9% | Specific Counts (dpm) (Sf9 cells; 0.00123 mM): 5639.1 dpm | Total Counts (dpm) Determined (Sf9 cells; 0.00123 mM): 6595.9 dpm | inhibition at 1.23 µM (Sf9 cells; 0.00123 mM): 11.7% | Specific Counts (dpm) (Sf9 cells; 0.0037 mM): 4952.4 dpm | Total Counts (dpm) Determined (Sf9 cells; 0.0037 mM): 5909.2 dpm | inhibition at 3.7 µM (Sf9 cells; 0.0037 mM): 22.4% | Specific Counts (dpm) (Sf9 cells; 0.0111 mM): 3295.5 dpm | Total Counts (dpm) Determined (Sf9 cells; 0.0111 mM): 4252.3 dpm | inhibition at 11.1 µM (Sf9 cells; 0.0111 mM): 48.4% | Specific Counts (dpm) (Sf9 cells; 0.0333 mM): 1934.3 dpm | Total Counts (dpm) Determined (Sf9 cells; 0.0333 mM): 2891.1 dpm | inhibition at 33.3 µM (Sf9 cells; 0.0333 mM): 69.7% | Specific Counts (dpm) (Sf9 cells; 0.1 mM): 1267.9 dpm | Total Counts (dpm) Determined (Sf9 cells; 0.1 mM): 2224.7 dpm | inhibition at 100 µM (Sf9 cells; 0.1 mM): 80.1%

Cc1ccc(/N=C/N(C)/C=N/c2ccc(C)cc2C)c(C)c1 [Amitraz, amitraz]
Specific Counts (dpm) (Sf9 cells; 0.000041 mM): 6020.4 dpm | Total Counts (dpm) Determined (Sf9 cells; 0.000041 mM): 6899.4 dpm | inhibition at 0.041 µM (Sf9 cells; 0.000041 mM): 2.5% | Specific Counts (dpm) (Sf9 cells; 0.000123 mM): 5130.2 dpm | Total Counts (dpm) Determined (Sf9 cells; 0.000123 mM): 6009.2 dpm | inhibition at 0.123 µM (Sf9 cells; 0.000123 mM): 16.9% | Specific Counts (dpm) (Sf9 cells; 0.00037 mM): 3939.2 dpm | Total Counts (dpm) Determined (Sf9 cells; 0.00037 mM): 4818.2 dpm | inhibition at 0.37 µM (Sf9 cells; 0.00037 mM): 36.2% | Specific Counts (dpm) (Sf9 cells; 0.00111 mM): 2562.5 dpm | Total Counts (dpm) Determined (Sf9 cells; 0.00111 mM): 3441.5 dpm | inhibition at 1.11 µM (Sf9 cells; 0.00111 mM): 58.5% | Specific Counts (dpm) (Sf9 cells; 0.00333 mM): 1428.2 dpm | Total Counts (dpm) Determined (Sf9 cells; 0.00333 mM): 2307.2 dpm | inhibition at 3.33 µM (Sf9 cells; 0.00333 mM): 76.9% | Specific Counts (dpm) (Sf9 cells; 0.01 mM): 1049.5 dpm | Total Counts (dpm) Determined (Sf9 cells; 0.01 mM): 1928.5 dpm | inhibition at 10 µM (Sf9 cells; 0.01 mM): 83%

CN=CNc1ccc(Cl)cc1C [DCDM, demethylchlordimeform]
% Inhibition (Sf9 cells; 0.0000041 mM): 11.7% | Specific Counts (dpm) (Sf9 cells; 0.0000041 mM): 5687.8 dpm | Total Counts (dpm) Determined (Sf9 cells; 0.0000041 mM): 6512.1 dpm | % Inhibition (Sf9 cells; 0.0000123 mM): 23.1% | Specific Counts (dpm) (Sf9 cells; 0.0000123 mM): 4954.7 dpm | Total Counts (dpm) Determined (Sf9 cells; 0.0000123 mM): 5779.0 dpm | % Inhibition (Sf9 cells; 0.000037 mM): 38% | Specific Counts (dpm) (Sf9 cells; 0.000037 mM): 3993.7 dpm | Total Counts (dpm) Determined (Sf9 cells; 0.000037 mM): 4818 dpm | % Inhibition (Sf9 cells; 0.000111 mM): 58.3% | Specific Counts (dpm) (Sf9 cells; 0.000111 mM): 2689.4 dpm | Total Counts (dpm) Determined (Sf9 cells; 0.000111 mM): 3513.7 dpm | % Inhibition (Sf9 cells; 0.000333 mM): 77.1% | Specific Counts (dpm) (Sf9 cells; 0.000333 mM): 1472.8 dpm | Total Counts (dpm) Determined (Sf9 cells; 0.000333 mM): 2297.1 dpm | % Inhibition (Sf9 cells; 0.001 mM): 84.1% | Specific Counts (dpm) (Sf9 cells; 0.001 mM): 1026.2 dpm | Total Counts (dpm) Determined (Sf9 cells; 0.001 mM): 1850.5 dpm

CNCC(O)c1ccc(O)cc1 (centres unmarked) [Synephrine, synephrine]
Specific Counts (dpm) (Sf9 cells; [2]): 4516.2 dpm | Total Counts (dpm) Determined (Sf9 cells; [2]): 5487 dpm | Specific Counts (dpm) (Sf9 cells; 0.000123 mM): 6081.7 dpm | Total Counts (dpm) Determined (Sf9 cells; 0.000123 mM): 7052.5 dpm | inhibition at 0.123 µM (Sf9 cells; 0.000123 mM): 3.1% | Specific Counts (dpm) (Sf9 cells; 0.00037 mM): 5260 dpm | Total Counts (dpm) Determined (Sf9 cells; 0.00037 mM): 6230.8 dpm | inhibition at 0.37 µM (Sf9 cells; 0.00037 mM): 16.2% | Specific Counts (dpm) (Sf9 cells; 0.00333 mM): 2732.7 dpm | Total Counts (dpm) Determined (Sf9 cells; 0.00333 mM): 3703.5 dpm | inhibition at 3.33 µM (Sf9 cells; 0.00333 mM): 56.4% | Specific Counts (dpm) (Sf9 cells; 0.011 mM): 1605.1 dpm | Total Counts (dpm) Determined (Sf9 cells; 0.011 mM): 2575.9 dpm | inhibition at 11 µM (Sf9 cells; 0.011 mM): 74.4% | Specific Counts (dpm) (Sf9 cells; 0.033 mM): 1074.6 dpm | Total Counts (dpm) Determined (Sf9 cells; 0.033 mM): 2045.4 dpm | inhibition at 33 µM (Sf9 cells; 0.033 mM): 82.9%

Nc1ncnc2c1ncn2[C@@H]1O[C@@H]2COP(=O)(O)O[C@H]2[C@H]1O [cAMP Standard, cyclic adenosine 3′,5′-monophosphate]
% Inhibition ([1]; 0.0000026 mM): 20.3% | Specific Counts (dpm) ([1]; 0.0000026 mM): 5398.5 dpm | Total Counts (dpm) Determined ([1]; 0.0000026 mM): 5791 dpm | % Inhibition ([1]; 0.0000078 mM): 37.5% | Specific Counts (dpm) ([1]; 0.0000078 mM): 4234.8 dpm | Total Counts (dpm) Determined ([1]; 0.0000078 mM): 4627.3 dpm | % Inhibition ([1]; 0.000023 mM): 61.7% | Specific Counts (dpm) ([1]; 0.000023 mM): 2595.8 dpm | Total Counts (dpm) Determined ([1]; 0.000023 mM): 2988.3 dpm | % Inhibition ([1]; 0.00007 mM): 78.8% | Specific Counts (dpm) ([1]; 0.00007 mM): 1435.8 dpm | Total Counts (dpm) Determined ([1]; 0.00007 mM): 1828.3 dpm | % Inhibition ([1]; 0.00021 mM): 90.4% | Specific Counts (dpm) ([1]; 0.00021 mM): 648.8 dpm | Total Counts (dpm) Determined ([1]; 0.00021 mM): 1041.3 dpm | % Inhibition ([1]; 0.00064 mM): 95.5% | Specific Counts (dpm) ([1]; 0.00064 mM): 307.6 dpm | Total Counts (dpm) Determined ([1]; 0.00064 mM): 700.3 dpm
